One experiment addresses T1, GCase (Homo sapiens, UniProt P04062, N409S).
T1 construct: evaluated in a N370S patient derived fibroblast for chaperone activity; endogenous in cells; host or cells: N370S Gaucher patient-derived fibroblasts
T1 sequence (P04062 40-536 N409S): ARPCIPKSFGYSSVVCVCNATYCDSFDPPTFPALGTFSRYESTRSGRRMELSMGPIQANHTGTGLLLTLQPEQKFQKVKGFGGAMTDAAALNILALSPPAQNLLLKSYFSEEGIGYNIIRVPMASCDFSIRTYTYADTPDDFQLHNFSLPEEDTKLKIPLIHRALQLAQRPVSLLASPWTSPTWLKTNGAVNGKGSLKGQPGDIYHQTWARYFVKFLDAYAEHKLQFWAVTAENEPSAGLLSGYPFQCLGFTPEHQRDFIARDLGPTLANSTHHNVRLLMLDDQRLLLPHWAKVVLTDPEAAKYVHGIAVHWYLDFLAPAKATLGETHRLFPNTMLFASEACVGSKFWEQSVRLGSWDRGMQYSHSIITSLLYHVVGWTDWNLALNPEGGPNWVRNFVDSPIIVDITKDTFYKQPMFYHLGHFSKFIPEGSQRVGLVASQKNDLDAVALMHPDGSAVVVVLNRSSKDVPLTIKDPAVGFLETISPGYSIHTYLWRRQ
Description: Chaperone activity in N370S patient derived fibroblast (GCase/LAMP/DAPI staining). The settings on record: NGC00188758-1 1 μM and 5 μM, isofagomine 1 μM, overlay of anti GCase R386 and LAMP stains. The format is cell-based. From the text:
GCase was visualized with red stain (anti GCase R386 antibody), lysosome with green (LAMP), and nucleus with blue (DAPI). […] All laser settings were held constant across all of the fields imaged.

The target in experiment [1] is T2, N370S glucocerebrosidase from human spleen homogenate (Homo sapiens, UniProt P04062, N409S).
T2 construct: N370S glucocerebrosidase from human spleen homogenate as the enzyme preparation; from tissue; host or cells: human spleen homogenate
T2 sequence (P04062 40-536 N409S): T1 sequence (P04062 40-536 N409S)
As to the kind of experiment: qHTS fluorogenic enzyme assay for activators of N370S glucocerebrosidase (4-methylumbelliferyl-beta-D-glucopyranoside substrate). The experiment is classed as biochemical. The settings on record: pH 5.0, 37° C. 40 min. The text has this: qHTS Assay for Inhibitors and Activators of N370S glucocerebrosidase as a Potential Chaperone Treatment of Gaucher Disease: Primary Screen Confirmation
This is a fluorogenic enzyme assay with 4-methylumbelliferyl-beta-D-glucopyranoside as the substrate and N370S glucocerebrosidase from human spleen homogenate as the enzyme preparation. Upon the hydrolysis of this fluorogenic substrate, the resulting product, […] which can be detected by a standard fluorescence plate reader. Data were normalized to the controls for basal activity (without enzyme) and 100% activity (with enzyme). The AC50 values were determined from concentration-response data modeled with the standard Hill equation.
Human spleen homogenate is prepared as follows by homogenizing spleen with assay buffer containing 50 mM citric acid (titrated with potassium phosphate to pH 5.0), 100 mM potassium chloride, 10 mM sodium chloride, 1 mM magnesium chloride, 0.01% Tween-20. The protein concentration of the human spleen homogenate is approximated 1.35 ug/ul.
The assay is performed in 1536 well plates according to the following protocol. (1) 2 ul spleen homogenate ([…] final) is added to each well. (2) 23 nL test compound in DMSO solution is added to each well. The final concentration of compound in the test well is 0.5 nM to 58 uM. (3) 2 ul of substrate (1 mM final) are added to each well. (4) Incubate assay plates at 37° C. for 40 min. (5) Add 2 ul stop solution (1M NaOH and 1M Glycine mixture, pH 10) to each well. (6) Detect the assay plate in a ViewLux plate reader (PerkinElmer) using 365 nm excitation with emission at 440 nm.
On the technique in general: In qHTS, concentration-response curves come from the screen itself.

Consider `OC[C@H]1CNC[C@@H](O)[C@@H]1O` [isofagomine, reference compound], for which, on GCase, the “GCase activity in the lysosome relative to vehicle control” value is listed as “significantly increased GCase activity in the lysosome”.

Broadly, the AC50 is the concentration at which the activity in the assay is half-maximal. Read a high AC50 as weaker potency. Take `C#Cc1ccc(NC(=O)c2cnn3c(C)cc(C)nc23)cc1` [NCGC00188758-01, N-(4-ethynylphenyl)-5,7-dimethylpyrazolo[1,5-a]pyrimidine-3-carboxamide]: in experiment [1], half-maximal activity (AC50) was put at 0.366 µM. The “GCase activity in the lysosome relative to vehicle control” value on GCase was “significantly increased GCase activity in the lysosome”.

Regarding `O=C(Nc1ccc2c(c1)CCC2)c1cnn2c1NC(=C1CC1)C=C2C(F)F` [NCGC00182174-01, 5-cyclopropylidene-7-(difluoromethyl)-N-(2,3-dihydro-1H-inden-5-yl)-4,5-dihydropyrazolo[1,5-a]pyrimidine-3-carboxamide], the AC50 in experiment [1] was 3.98 µM.

The compound `Cc1cc(C)n2ncc(C(=O)Nc3ccc4c(c3)CCC4)c2n1` [NCGC00187969-01, N-(2,3-dihydro-1H-inden-5-yl)-5,7-dimethylpyrazolo[1,5-a]pyrimidine-3-carboxamide] displayed an AC50 in experiment [1] of 2.59 µM.

`O=C(Nc1cc(F)ccc1F)c1cnn2c1NC(=C1CC1)C=C2C(F)F` [NCGC00182172-01, 5-cyclopropylidene-7-(difluoromethyl)-N-(2,5-difluorophenyl)-4,5-dihydropyrazolo[1,5-a]pyrimidine-3-carboxamide] gave an AC50 in experiment [1] of 3.16 µM.

`Cc1cc(C)n2ncc(C(=O)Nc3cnc4ccccc4c3)c2n1` [NCGC00188762-01, 5,7-dimethyl-N-(quinolin-3-yl)pyrazolo[1,5-a]pyrimidine-3-carboxamide] returned an AC50 in experiment [1] of 16.3 µM.

As to `O=C(NC1CCCc2ccccc21)c1cnn2c1NC(=C1CC1)C=C2C(F)F` (stereo not drawn) [NCGC00182176-01, 5-cyclopropylidene-7-(difluoromethyl)-N-(1,2,3,4-tetrahydronaphthalen-1-yl)-4,5-dihydropyrazolo[1,5-a]pyrimidine-3-carboxamide], the AC50 in experiment [1] was 14.3 µM.

In experiment [1], `CCC(C)c1ccc(NC(=O)c2cnn3c(C(F)F)cc(C)nc23)cc1` (stereo not drawn) [MLS000662237-01, N-(4-sec-butylphenyl)-7-(difluoromethyl)-5-methylpyrazolo[1,5-a]pyrimidine-3-carboxamide] had an AC50 of 5.01 µM.

`O=C(Nc1ccccc1Sc1ccccc1)c1cnn2c1NC(=C1CC1)C=C2C(F)(F)F` [NCGC00182190-01, 5-cyclopropylidene-N-(2-(phenylthio)phenyl)-7-(trifluoromethyl)-4,5-dihydropyrazolo[1,5-a]pyrimidine-3-carboxamide] returned an AC50 in experiment [1] of 14.1 µM.

In experiment [1], `Cc1cc(C)n2ncc(C(=O)Nc3ccc(C)c(C)c3)c2n1` [NCGC00188783-01, N-(3,4-dimethylphenyl)-5,7-dimethylpyrazolo[1,5-a]pyrimidine-3-carboxamide] showed an AC50 of 1.46 µM.

For the compound `CC(=O)c1ccc(NC(=O)c2cnn3c(C)cc(C)nc23)cc1` [NCGC00188784-01, N-(4-acetylphenyl)-5,7-dimethylpyraozlo[1,5-a]pyrimidine-3-carboxamide], the AC50 in experiment [1] was determined as 163 µM.

As for `C=C1C=C(C(F)F)n2ncc(C(=O)NC(C)CC)c2N1` (stereo not drawn) [NCGC00182145-01, N-sec-butyl-7-(difluoromethyl)-5-methylene-4,5-dihydropyrazolo[1,5-a]pyrimidine-3-carboxamide], in experiment [1], the AC50 stood at 31.6 µM. Compared with the last compound, the AC50 is about 5.2-fold lower.

The compound `Cc1ccc(NC(=O)c2cnn3c(C)cc(C)nc23)cc1` [NCGC00188772-01, 5,7-dimethyl-N-p-tolylpyrazolo[1,5-a]pyrimidine-3-carboxamide] yielded an AC50 in experiment [1] of 1.63 µM.

In experiment [1], `COc1ccc(NC(=O)c2cnn3c(C)cc(C)nc23)cc1Cl` [NCGC00188780-01, N-(3-chloro-4-methoxyphenyl)-5,7-dimethylpyrazolo[1,5-a]pyrimidine-3-carboxamide] came in with an AC50 of 2.06 µM.

In experiment [1], `Cc1cc(C)n2ncc(C(=O)Nc3ccc4ccccc4n3)c2n1` [NCGC00188763-01, 5,7-dimethyl-N-(quinolin-2-yl)pyrazolo[1,5-a]pyrimidine-3-carboxamide] displayed an AC50 of 20.6 µM.

For the compound `Cc1cc(-c2ccccc2)n2ncc(C(=O)NC3CCC(C(C)(C)C)CC3)c2n1` (stereo not drawn) [NCGC0229711-01, N-(4-tert-butylcyclohexyl)-5-methyl-7-phenylpyrazolo[1,5-a]pyrimidine-3-carboxamide], the activity in experiment [1] was half-maximal at 32.6 µM (AC50).

In turn, `Cc1cc(C)n2ncc(C(=O)Nc3cc(Cl)cc(Cl)c3)c2n1` [NCGC00229716-01, N-(3,5-dichlorophenyl)-5,7-dimethylpyrazolo[1,5-a]pyrimidine-3-carboxamide] displayed an AC50 in experiment [1] of 25.9 µM.

Compound `Cc1cc(C)n2ncc(C(=O)NCc3ccccc3)c2n1` [NCGC00187976-01, N-benzyl-5,7-dimethylpyrazolo[1,5-a]pyrimidine-3-carboxamide] gave an AC50 in experiment [1] of 51.7 µM.

As to `Cc1cc(-c2ccccc2)nc2c(C(=O)NC3CCC(C(C)(C)C)CC3)cnn12` (stereo not drawn) [NCGC00229708-01, N-(4-tert-butylcyclohexyl)-7-methyl-5-phenylpyrazolo[1,5-a]pyrimidine-3-carboxamide], the AC50 in experiment [1] was determined as 2.06 µM.

In the case of `O=C(Nc1cccc(Nc2ccccc2)c1)c1cnn2c1NC(=C1CC1)C=C2C(F)F` [NCGC00182185-01, 5-cyclopropylidene-7-(difluoromethyl)-N-(3-(phenylamino)phenyl)-4,5-dihydropyrazolo[1,5-a]pyrimidine-3-carboxamide], the AC50 in experiment [1] was 12.6 µM.

In experiment [1], `Cc1cc(C)n2ncc(C(=O)NC3CCC(C(C)(C)C)CC3)c2n1` (stereo not drawn) [NCGC00188754-01, N-(4-tert-butylcyclohexyl)-5,7-dimethylpyrazolo[1,5-a]pyrimidine-3-carboxamide] displayed an AC50 of 25.9 µM. This AC50 is about 2.1-fold higher than that of the compound before.

The compound `Cc1cc(C)n2ncc(C(=O)NCC(C)C)c2n1` [NCGC00187978-01, N-isobutyl-5,7-dimethylpyrazolo[,15-a]pyrimidine-3-carboxamide] showed an AC50 in experiment [1] of 32.6 µM.

The compound `C=C1C=C(C(F)F)n2ncc(C(=O)Nc3ccccc3OCC)c2N1` [NCGC00182160-01, 7-(difluoromethyl)-N-(2-ethoxyphenyl)-5-methylene-4,5-dihydropyrazolo[1,5-a]pyrimidine-3-carboxamide] returned an AC50 in experiment [1] of 2.51 µM.

The record behind these values is patent US10925874B2, “Substituted pyrazolopyrimidines as glucocerebrosidase activators” (The United States of America, as Represented by the …, priority 2010, dated 2021).
